Results taken from patent US6436922B1, “5,11-dihydrobenzo[b,e][1,4]oxazepine derivatives and pharmaceutical compositions containing the same” (Ajinomoto Co., Inc., priority 1996, dated 2002).
Values belong to the compound of their own block, whether it stands above or below them.

Legend:
WRS-induced defecation = test: Inhibition of acceleration of stool excretion in a wrap restraint stress (WRS) model; format: in vivo; conditions: rat, p.o. 30 minutes before stress, stool over 1 hour, Litchfield-Wilcoxon method
Method: In-vivo test [effect of inhibiting acceleration of stool excretion in a wrap restraint stress (WRS) model]:
The test was conducted by the method of William et al. [Gastroenterology, 94, 611 (1988)]. That is, each of Crj:CD male rats (from 6 to 7 weeks old) was slightly etherized, and the fore shoulder, the foreleg and the chest thereof were wrapped with a paper tape to apply stress thereto. The rat was allowed to stand under stress for 1 hour, and the amount of stool excreted during that time was measured. The test compound was orally administered to the rat 30 minutes before applying the stress thereto. The normal group was etherized, and then allowed to stand for 1 hour without applying stress thereto. Thereafter, the amount of stool excreted was measured. In this test, nicardipine and Compound A were used as comparative substances. The 50% inhibition dose (ID50) relative to the increase in the […] of stool owing to WRS was calculated by the Litchfield-Wilcoxon method, and the results are shown in Table 2-1. In addition, and inhibition of test compounds (lomg/kg, p.o.) expressed as a percentage of control were determined and the results were shown in Table 2—2.

rat pupillary diameter = test: Anticholinergic activity by mydriasis of rats; format: in vivo; conditions: for rat pupillary diameter (mm) 1 hour / rat pupillary diameter (mm) 2 hours / rat pupillary diameter (mm) 6 hours: 300 mg/kg p.o.; for rat pupillary diameter (mm) 1 hour: after 1 hour; for rat pupillary diameter (mm) 2 hours: after 2 hours; for rat pupillary diameter (mm) 6 hours: after 6 hours; for rat pupillary diameter (mm) before: before administration of 300 mg/kg p.o.
Method: Anticholinergic activity by mydriasis of rats: […] The diameter of the pupil after 1, 2 or 6 hours was measured using a stereoscopic microscope of 5x magnification.

Acute toxicity test = conditions: ddy, mouse, in vivo, ip; male mice, i.p., mortality observed for 7 days; read-out: 50% lethal dose (LD50, mg/kg, i.p.)
tail artery pressure = test: Decrease in the blood pressure in rats (tail cuff method); format: in vivo; conditions: rat, dose causing 20 mmHg decrease in blood pressure 1 hour after administration
Method: Decrease in the blood pressure in rats:
This test was conducted by the tail cuff method. That is, each of Crj:CD male rats (from 8 to 9 weeks old) had been warmed to fully expand the tail artery. The tail artery pressure was then measured immediately before, and 1 hour after, the oral administration of the test compound using a non-invasive blood pressure measuring device. In this test, nicardipine and Compound A were used as comparative substances. With respect to the decrease in the blood pressure, a dose at which to cause the decrease in the blood pressure by 20 mmHg from the blood pressure immediately before the administration was calculated as ED20 from the regression line of the decrease (mmHg) in the blood pressure relative to the logarism of the dose of the test compound. As is clear from Tables 2-1 and 2—2, the compound of the present invention has a higher selectivity for the intestinal tract than Compound A, and it can be an excellent agent of improving an abnormal moving function of the digestive tract.

[1] = Decrease in the body temperature of rats; format: in vivo; conditions: rat, 100 mg/kg p.o.; for change in body temperature 1 hour: rectal temperature after 1 hour; for change in body temperature 2 hour: rectal temperature after 2 hours; for change in body temperature 5 hour: rectal temperature after 5 hours
Method: Decrease in the body temperature of rats:
A suspension of 100 mg/kg of a test compound in 0.5% methyl cellulose was orally administered to each of Crj:CD male rats (from 7 to 8 weeks old), and the body temperature (temperature of the rectum) after 1, 2 or 5 hours was measured using a thermistor thermometer, and the difference in the body temperature between the compound of the present invention and the comparative substance is shown in Table 4.

Crj:CD male rats = test: Test for a toxicity in continuous administration for 1 week; format: in vivo; conditions: rat, 100 mg/kg p.o. once daily for 1 week
Method: Test for a toxicity in continuous administration for 1 week:
A suspension of 100 mg/kg of the compound in Example 2 or 12 in 0.5% methyl cellulose was orally administered to each of Crj:CD male rats (6 weeks old) continuously for 1 week at a rate of one administration per day to observe general conditions, to measure the body weight, to conduct biochemical inspection of the blood, to measure the weights of the internal organs and to conduct pathological inspection.

Compound: COc1ccc(CCN2CCC[C@H]2CN2c3ccccc3CSc3ccccc32)cc1.Cl [Compound A, reference compound]
Inhibitory effect on WRS-induced defecation (ID50, mg/kg, p.o.) (WRS-induced defecation): 34.8 mg/kg
rat pupillary diameter (mm) 1 hour (rat pupillary diameter): 2.18 mm
rat pupillary diameter (mm) 2 hours (rat pupillary diameter): 2.27 mm
rat pupillary diameter (mm) 6 hours (rat pupillary diameter): 2.62 mm
rat pupillary diameter (mm) before (rat pupillary diameter): 0.85 mm
LD50 at 7 days (Acute toxicity test): 162 mg/kg
Hypotensive effect (ED20, mg/kg, p.o.) (tail artery pressure): >100 mg/kg
change in body temperature 1 hour [1]: −0.5
change in body temperature 2 hour [1]: −0.6
change in body temperature 5 hour [1]: −0.5

melting point: 164 to 166 °C
Compound: COc1cccc(CCN2CCC[C@H]2CN2c3ccccc3COc3ccccc32)c1.Cl

melting point: 158 to 162 °C
Compound: Cl.c1ccc2c(c1)COc1ccccc1N2C[C@@H]1CCCN1CCc1ccc2c(c1)OCO2

melting point: 109 to 112 °C
Compound: Cl.N#Cc1ccc(CCN2CCC[C@@H]2CN2c3ccccc3COc3ccccc32)cc1

Compound: COc1ccc(CCN2CCC[C@H]2CN2c3ccccc3COc3ccccc32)cc1.Cl [Example 12, (S)-(−)-5,11-dihydro-5-[1-(4-methoxyphenethyl)-2-pyrrolidinylmethyl]dibenzo[b,e][1,4]oxazepine hydrochloride]
LD50 at 7 days (Acute toxicity test): > 280 mg/kg
toxicity findings (general conditions, body weight, blood biochemistry, organ weights, pathology) (Crj:CD male rats): no remarkable change was observed

melting point: 106 to 109 °C
Compound: COc1ccc(CCN2CCC[C@H]2CN2c3ccccc3COc3ccccc32)cc1OC.Cl

Compound: Cl.Fc1ccc(CCN2CCC[C@@H]2CN2c3ccccc3COc3ccccc32)cc1 [Example 4, (R)-(+)-5,11-dihydro-5-[1-(4-fluorophenethyl)-2-pyrrolidinylmethyl]dibenzo[b,e][1,4]oxazepine hydrochloride]
Inhibitory effect on WRS-induced defecation (ID50, mg/kg, p.o.) (WRS-induced defecation): 1.8 mg/kg
rat pupillary diameter (mm) 1 hour (rat pupillary diameter): 0.70 mm
rat pupillary diameter (mm) 2 hours (rat pupillary diameter): 0.57 mm
rat pupillary diameter (mm) 6 hours (rat pupillary diameter): 0.70 mm
rat pupillary diameter (mm) before (rat pupillary diameter): 0.80 mm
LD50 at 7 days (Acute toxicity test): > 200 mg/kg
Hypotensive effect (ED20, mg/kg, p.o.) (tail artery pressure): >1000 mg/kg
change in body temperature 1 hour [1]: −0.3
change in body temperature 2 hour [1]: −0.2
change in body temperature 5 hour [1]: +0.1

melting point: 106 to 109 °C
Compound: COc1ccc(CCN2CCC[C@@H]2CN2c3ccccc3COc3ccccc32)cc1OC.Cl

Compound: COC(=O)C1=C(C)NC(C)=C(C(=O)OCCN(C)Cc2ccccc2)C1c1cccc([N+](=O)[O-])c1 (centres unmarked) [nicardipine, reference compound]
Inhibitory effect on WRS-induced defecation (ID50, mg/kg, p.o.) (WRS-induced defecation): 6.8 mg/kg
Hypotensive effect (ED20, mg/kg, p.o.) (tail artery pressure): 4.0 mg/kg

melting point: 179 to 182 °C
Compound: Cl.c1ccc(CCN2CCC[C@@H]2CN2c3ccccc3COc3ccccc32)cc1

Compound: COc1ccc(CCN2CCC[C@@H]2CN2c3ccccc3COc3ccccc32)cc1.Cl [Example 2, (R)-(+)-5,11-dihydro-5-[1-(4-methoxyphenethyl)-2-pyrrolidinylmethyl]-dibenzo[b,e][1,4]oxazepine hydrochloride]
Inhibitory effect on WRS-induced defecation (ID50, mg/kg, p.o.) (WRS-induced defecation): 3.1 mg/kg
rat pupillary diameter (mm) 1 hour (rat pupillary diameter): 0.90 mm
rat pupillary diameter (mm) 2 hours (rat pupillary diameter): 0.77 mm
rat pupillary diameter (mm) 6 hours (rat pupillary diameter): 0.97 mm
rat pupillary diameter (mm) before (rat pupillary diameter): 0.97 mm
LD50 at 7 days (Acute toxicity test): 175 mg/kg
Hypotensive effect (ED20, mg/kg, p.o.) (tail artery pressure): >1000 mg/kg
toxicity findings (general conditions, body weight, blood biochemistry, organ weights, pathology) (Crj:CD male rats): no remarkable change was observed
change in body temperature 1 hour [1]: 0
change in body temperature 2 hour [1]: −0.1
change in body temperature 5 hour [1]: −0.2
